One data set deals with T1, human islet GK isoform (Homo sapiens, UniProt P35557).
T1 construct: (His)6; made in house; host or cells: E. coli
T1 sequence (P35557 1-465): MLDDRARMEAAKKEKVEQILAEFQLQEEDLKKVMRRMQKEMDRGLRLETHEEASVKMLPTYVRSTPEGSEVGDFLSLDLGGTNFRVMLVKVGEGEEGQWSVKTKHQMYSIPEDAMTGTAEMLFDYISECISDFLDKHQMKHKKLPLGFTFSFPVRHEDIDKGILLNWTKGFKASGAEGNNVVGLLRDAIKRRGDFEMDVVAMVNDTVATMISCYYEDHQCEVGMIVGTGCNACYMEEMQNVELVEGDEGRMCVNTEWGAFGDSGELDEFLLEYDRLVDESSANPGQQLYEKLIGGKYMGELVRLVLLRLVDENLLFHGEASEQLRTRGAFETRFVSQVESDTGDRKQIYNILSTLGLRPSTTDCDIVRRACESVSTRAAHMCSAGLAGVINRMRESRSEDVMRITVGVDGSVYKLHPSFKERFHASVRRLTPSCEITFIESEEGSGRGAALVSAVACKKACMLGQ
Description: Glucokinase Assay. Format: biochemical. Here is the method:
The human islet GK isoform is expressed in E. coli as (His)6-tagged fusion protein and purified with metal chelate affinity chromatography, see e.g. Tiedge et al., Biochem. Biophys. Acta 1337, 175-190, 1997. After purification the enzyme is stored in aliquots at concentration 0.8 mg/ml in 25 mM sodium phosphate, 150 mM sodium chloride, 100 mM imidazole, 1 mM dithiothreitol, 50% glycerol at −80° C. The assay is performed in flat bottom 96-well plates in a final incubation volume of 100 μL. The incubation mixture consists of 25 mM 4-(2-hydroxyethyl)-1-piperazineethanesulfonic acid (HEPES) (pH7.4), 50 mM potassiumchloride, 2.5 mM magnesiumchloride, 2 mM dithiothreitol, 4 U/ml glucose-6-phosphate dehydrogenase from Leuconostoc mesenteroides, 5 mM ATP, 1 mM NAD and a set concentration of glucose. Test compounds are dissolved in dimethylsulfoxide and then added to the reaction mixture giving the final dimethylsulfoxide concentration of 10%. The reaction is initiated by addition of 20 μL GK and run for 20 min at 37° C. The amount of formed NADH is measured as an increase in absorbance at 340 nm using a microplate reader. Absorbance values are used for EC50 calculations.

The subject of data set [1] is Rat insulinoma INS-1E cells. Description: Glycolysis Assay. The class given is cell-based. The conditions noted are these: INS1-E cells, 8 mM glucose, n=4, read-out: mean EC50 of stimulation of glucose metabolism.
Description: Rat insulinoma INS-1E cells are maintained at 37° C., 5% CO2, 95% humidity in 1640 medium supplemented with 11 mM glucose, 5% Fetal Bovine Serum, 50 μM 2-Mercaptoethanol, 1 mM pyruvate, 10 mM HEPES and antibiotics. Prior to assay, cells are trypsinized, pelleted by centrifugation and seeded into 96-well tissue culture assay plates at the density of 30,000 cells/well. Cells are allowed to attach and incubated for 48 hours at 37° C., 5% CO2. On the assay day, cells are washed with and incubated in 200 μL Earle's Balanced Salt Solution (EBSS) buffer supplemented with 0.1% Bovine Serum Albumin (BSA). After 30 minutes incubation, the buffer is removed and 100 μL EBSS buffer containing 0.1% BSA, 8 mM glucose and the compound is added to cells. Immediately after, 20 μL of CellTiter 96® AQueous One Solution Reagent is added to cells and cells are incubated at 37° C. for an additional hour. At the end of incubation absorbance at 490 nm is read. Absorbance values are used for EC50 calculations.
Data set [2] deals with plasma glucose in male Wistar rats. Description: Oral Glucose Tolerance Test (OGTT). The class given is in vivo, rat. As for the experimental part: Male Wistar rats at a weight of 225-250 g, are kept on regular diet and with normal light cycle and conditions. For the study, rats are fasted overnight before their exact weights are measured, and are randomized into groups of similar weights (n=4 per group). The compound is suspended in a 1:1 mixture of solutol/ethanol in a bath sonicator (10% of total volume). The obtained suspension is then diluted with 9 volumes of 10% aqueous solutol solution, and the compound is dosed orally at 1, 3, 6, 10, 20, and 30 mg/kg orally. Rats are given a 2 g/kg oral glucose bolus 2 hours after compound administration. Blood is collected via tail bleed at 0, 15, 30, 60, 90 and 120 minutes post glucose administration. Collected blood is placed into ethylenediaminetetraacetic acid (EDTA) tubes at volume of 400 μL per sample, and the samples are kept on ice. Plasma is isolated and stored at −20° C. until samples are analyzed for glucose and compound exposure. Area under the plasma glucose curve (glucose AUC) is calculated for each group and the percentage decrease in the glucose AUC versus the control group is used as a measure of efficacy of the compound to decrease plasma glucose.

Data set [3] in a line: Blood Brain Barrier Permeability. The conditions noted are these: male CF-1 mice, IV bolus 2.17 μmole/kg, five minutes post dose. The class given is in vivo, mouse. As for the experimental part: A stock compound solution is prepared in dimethylsulfoxide at 10 mM. A dose solution is then prepared at 1 mM by diluting 100 μL of the stock with 900 μL of propylene glycol. The dose is administered as an IV bolus (2.2 mL/kg) via the tail vein into six male CF-1 mice (approximately 23 g) for a target dose of 2.17 μmole/kg. Mice are euthanized using both CO2 and cervical dislocation. Three mice are sacrificed 5 minutes post dose and three 60 minutes post dose. Blood is collected from each animal via cardiac puncture, and plasma is prepared using sodium EDTA, transferred into polypropylene sample tubes and immediately frozen using dry ice. […]
MS/MS is effected using a Sciex API 4000 triple quadrupole mass spectrometer equipped with a turbo ion spray source. […] Column effluent is diverted to waste from 0-2.8 minutes and then directed into the mass spectrometer from 2.8-4.0 minutes MS/MS transitions monitored are 560/84. Quantitation of compound in test samples is achieved by comparing peak area values to a quadratic equation weighted 1/x^2 derived from the nominal concentrations of the calibration standards and their respective peak areas. Upper and Lower Limits of Quantitation are determined by the back calculated recoveries of calibration standards that exceeded +/−20% of theory. […]

Where “and” joins values, the source holds several entries; their conditions need not be identical. Identical values can stand only once.

One may read the EC50 as the concentration giving half of the maximal effect. Turning to `O=C(Nc1ncc(SCCN2CCCC2)s1)[C@]1(c2ccc(S(=O)(=O)C3CC3)cc2)C[C@H]1C1CCCCC1` [Example 1, (1R,2S)-2-Cyclohexyl-1-(4-cyclopropanesulfonyl-phenyl)-cyclopropanecarboxylic acid [5-(2-pyrrolidin-1-yl-ethylsulfanyl)-thiazol-2-yl]-amide], the EC50 at human islet GK isoform (10 mM glucose, n=5, read-out: EC50 of GK activation) came to 42 ± 42 nM; in data set [1] it was 579 ± 139 nM. Besides, on human islet GK isoform (lower glucose concentrations), the “enzyme activity at lower glucose concentrations” value is given as “increased the enzyme activity in a concentration dependent manner”. For the same compound, the “maximal lowering of glucose AUC versus the untreated control group” value in data set [2] (30 mg/kg oral, 2 g/kg oral glucose bolus 2 hours after compound) was 42%. The “average compound concentration in plasma at which a 20% glucose AUC decrease occurs” value in data set [2] (interpolation of the data) was 99 ng/ml and 179 nM. In addition, the “compound dose corresponding to a 20% glucose AUC decrease” value in data set [2] (interpolation of the data, oral) is listed as 6.9 mg/kg. In data set [2] (oral 1-30 mg/kg, fasted and postprandial glucose levels), the “effect on plasma glucose” value was “decreases plasma glucose in a dose-dependent manner”. In data set [3], the “mean total brain level” value turned out to be 0.539 nmol/g. In data set [3] (mouse, brain/plasma, read-out: mean brain/plasma ratio), the Kp at 5 min stood at 0.17.

Source of the values: US8063079B2, “Cyclopropyl compounds” (Eli Lilly and Company, priority 2008, dated 2011).
